Each structure is given as a SMILES string. Where two headings read alike, the source gives them in different places. Some results are limits rather than exact numbers.

Assay [1] deals with Human μ-opioid receptor (Homo sapiens, UniProt P35372). The experiment in a line: biochemical. It is filed as binding.
Assay [2] addresses Human α2δ-1 subunit of Cav2.2 calcium channel (Homo sapiens, UniProt P54289). As to the kind of experiment: biochemical. It is filed as binding.

Sequence of Human α2δ-1 subunit of Cav2.2 calcium channel (P54289 25-1103): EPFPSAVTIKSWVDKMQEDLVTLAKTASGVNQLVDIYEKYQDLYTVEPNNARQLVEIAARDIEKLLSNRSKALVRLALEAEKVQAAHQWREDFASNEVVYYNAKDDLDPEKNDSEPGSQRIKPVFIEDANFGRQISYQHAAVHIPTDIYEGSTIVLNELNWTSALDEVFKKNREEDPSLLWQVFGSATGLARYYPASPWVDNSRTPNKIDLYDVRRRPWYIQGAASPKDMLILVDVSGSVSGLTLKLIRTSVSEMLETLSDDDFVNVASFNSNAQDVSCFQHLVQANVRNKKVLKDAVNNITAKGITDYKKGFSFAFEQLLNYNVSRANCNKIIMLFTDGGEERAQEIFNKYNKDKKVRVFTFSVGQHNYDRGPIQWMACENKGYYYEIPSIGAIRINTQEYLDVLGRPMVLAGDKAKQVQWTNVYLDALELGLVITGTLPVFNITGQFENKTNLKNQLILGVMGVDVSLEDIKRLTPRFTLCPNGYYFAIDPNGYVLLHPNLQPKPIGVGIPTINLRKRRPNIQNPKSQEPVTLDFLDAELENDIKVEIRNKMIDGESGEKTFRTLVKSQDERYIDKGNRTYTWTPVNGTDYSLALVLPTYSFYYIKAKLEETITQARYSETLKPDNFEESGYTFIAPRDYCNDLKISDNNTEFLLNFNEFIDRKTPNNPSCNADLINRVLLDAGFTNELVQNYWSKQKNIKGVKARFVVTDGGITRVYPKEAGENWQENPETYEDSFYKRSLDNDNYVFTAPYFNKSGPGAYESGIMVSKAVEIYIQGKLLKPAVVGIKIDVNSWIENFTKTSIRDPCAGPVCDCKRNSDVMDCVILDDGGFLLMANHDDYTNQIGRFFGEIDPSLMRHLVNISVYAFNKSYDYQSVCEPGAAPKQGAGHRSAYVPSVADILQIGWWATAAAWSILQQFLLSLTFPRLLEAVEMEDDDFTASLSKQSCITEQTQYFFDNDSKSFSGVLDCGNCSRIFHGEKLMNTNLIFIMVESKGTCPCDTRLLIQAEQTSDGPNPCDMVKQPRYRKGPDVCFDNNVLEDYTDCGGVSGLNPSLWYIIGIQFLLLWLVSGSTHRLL
Sequence of Human μ-opioid receptor (P35372 whole entry): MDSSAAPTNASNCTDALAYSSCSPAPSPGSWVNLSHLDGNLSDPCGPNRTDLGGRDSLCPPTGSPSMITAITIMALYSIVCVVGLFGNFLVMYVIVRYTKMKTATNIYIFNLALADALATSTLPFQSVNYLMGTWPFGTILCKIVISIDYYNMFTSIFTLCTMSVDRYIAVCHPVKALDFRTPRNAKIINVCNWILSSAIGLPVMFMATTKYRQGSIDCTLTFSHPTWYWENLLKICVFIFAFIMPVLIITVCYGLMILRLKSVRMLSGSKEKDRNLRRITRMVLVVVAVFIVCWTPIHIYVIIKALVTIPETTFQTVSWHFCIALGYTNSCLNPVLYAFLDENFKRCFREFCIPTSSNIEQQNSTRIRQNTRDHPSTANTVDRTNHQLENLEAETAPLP

Turning to `CCC[C@H](c1nc2ncc(Br)cc2c(=O)n1CC)N1CCN[C@@H](C)C1` [Example 68, 6-Bromo-3-ethyl-2-((R)-1-((S)-3-methylpiperazin-1-yl)butyl)pyrido[2,3-d]pyrimidin-4(3H)-one], the Ki was > 500 nM in assay [1] and < 500 nM in assay [2].
On the same counts, the results for `CCC[C@@H](c1nc2ncc(Br)cc2c(=O)n1CC)N1CCN[C@@H](C)C1` [Example 69, 6-bromo-3-ethyl-2-((S)-1-((S)-3-methylpiperazin-1-yl)butyl)pyrido[2,3-d]pyrimidin-4(3H)-one] are > 500 nM and > 5000 nM.
With `CCC[C@H](c1nc2cccnc2c(=O)n1CC)N1CCN[C@@H](C)C1` [Example 70, 3-Ethyl-2-((R)-1-((S)-3-methylpiperazin-1-yl)butyl)pyrido[3,2-d]pyrimidin-4(3H)-one], the Ki in assay [1] is > 500 nM; in assay [2], < 500 nM.
On the same counts, the results for `CCC[C@@H](c1nc2cccnc2c(=O)n1CC)N1CCN[C@@H](C)C1` [Example 71, 3-ethyl-2-((S)-1-((S)-3-methylpiperazin-1-yl)butyl)pyrido[3,2-d]pyrimidin-4(3H)-one] are > 500 nM and > 5000 nM.
`CCC[C@H](c1nc2ncc(Br)cc2c(=O)n1CCC)N1CCN[C@@H](C)C1` [Example 72, 6-Bromo-2-((R)-1-((S)-3-methylpiperazin-1-yl)butyl)-3-propylpyrido[2,3-d]pyrimidin-4(3H)-one]: the Ki in assay [1] was > 500 nM; in assay [2], < 500 nM.
Take `CCC[C@@H](c1nc2ncc(Br)cc2c(=O)n1CCC)N1CCN[C@@H](C)C1` [Example 73, 6-bromo-2-((S)-1-((S)-3-methylpiperazin-1-yl)butyl)-3-propylpyrido[2,3-d]pyrimidin-4(3H)-one]: the Ki in assay [1] was > 500 nM; in assay [2] it was > 5000 nM.
In the case of `CCC[C@@H](c1nc2ncc(Br)cc2c(=O)n1CC1CC1)N1CCN[C@@H](C)C1` [Example 74, 6-Bromo-3-(cyclopropylmethyl)-2-((S)-1-((S)-3-methylpiperazin-1-yl)butyl)pyrido[2,3-d]pyrimidin-4(3H)-one], the Ki in assay [1] was > 500 nM; in assay [2], > 5000 nM.
In the case of `CCC[C@H](c1nc2ncc(Br)cc2c(=O)n1CC1CC1)N1CCN[C@@H](C)C1` [Example 75, 6-bromo-3-(cyclopropylmethyl)-2-((R)-1-((S)-3-methylpiperazin-1-yl)butyl)pyrido[2,3-d]pyrimidin-4(3H)-one], the Ki was > 500 nM in assay [1] and < 500 nM in assay [2].
On the same counts, the results for `CCC[C@H](c1nc2ncc(Cl)cc2c(=O)n1CC)N1CCN[C@@H](C)C1` [Example 76, 6-Chloro-3-ethyl-2-((R)-1-((S)-3-methylpiperazin-1-yl)butyl)pyrido[2,3-d]pyrimidin-4(3H)-one] are 100 to 500 nM and < 500 nM.
Take `CCC[C@@H](c1nc2nc(C(F)(F)F)ccc2c(=O)n1CC)N1CCN[C@@H](C)C1` [Example 77, 3-Ethyl-2-((S)-1-((S)-3-methylpiperazin-1-yl)butyl)-7-(trifluoromethyl)pyrido[2,3-d]pyrimidin-4(3H)-one]: the Ki is > 500 nM in assay [1] and > 5000 nM in assay [2].
The matching figures for `CCC[C@H](c1nc2nc(C(F)(F)F)ccc2c(=O)n1CC)N1CCN[C@@H](C)C1` [Example 78, 3-ethyl-2-((R)-1-((S)-3-methylpiperazin-1-yl)butyl)-7-(trifluoromethyl)pyrido[2,3-d]pyrimidin-4(3H)-one]: > 500 nM and < 500 nM.
In the case of `CCCC(c1nc2ccc(Br)cc2c(=O)n1CC)N1CCNCC1` (stereo not shown) [Example 79, 6-Bromo-3-ethyl-2-(1-(piperazin-1-yl)butyl)quinazolin-4(3H)-one], the Ki in assay [1] was > 500 nM; in assay [2], < 500 nM.
Turning to `CCCC(c1nc2ccccc2c(=O)n1C)N1CCNCC1` (stereo not shown) [Example 80, 3-methyl-2-(1-(piperazin-1-yl)butyl)quinazolin-4(3H)-one], the Ki in assay [1] (read-out: μ-binding) was > 500 nM; in assay [2] (read-out: α2δ-1 binding) it was 500 to 5000 nM.
Take `CCCC(c1nc2cc(Br)ccc2c(=O)n1CC)N1CCNCC1` (stereo not shown) [Example 81, 7-bromo-3-ethyl-2-(1-(piperazin-1-yl)butyl)quinazolin-4(3H)-one]: the Ki in assay [1] was > 500 nM; in assay [2] it was < 500 nM.
Regarding `CCCC(c1nc2ccc(Br)cc2c(=O)n1CCC)N1CCNCC1` (stereo not shown) [Example 82, 6-bromo-2-(1-(piperazin-1-yl)butyl)-3-propylquinazolin-4(3H)-one], the Ki was 100 to 500 nM in assay [1] and < 500 nM in assay [2].
In the case of `CCCC(c1nc2cc(F)c(Br)cc2c(=O)n1CC)N1CCNCC1` (stereo not shown) [Example 83, 6-bromo-3-ethyl-7-fluoro-2-(1-(piperazin-1-yl)butyl)quinazolin-4(3H)-one], the Ki is 100 to 500 nM in assay [1] and < 500 nM in assay [2].
Take `CCCC(c1nc2ccc(Br)c(C)c2c(=O)n1CC)N1CCNCC1` (stereo not shown) [Example 84, 6-bromo-3-ethyl-5-methyl-2-(1-(piperazin-1-yl)butyl)quinazolin-4(3H)-one]: the Ki was in the range of 100 to 500 nM in assay [1] and 500 to 5000 nM in assay [2].
Regarding `CCCC(c1nc2cc(C)c(Br)cc2c(=O)n1CC)N1CCNCC1` (stereo not shown) [Example 85, 6-bromo-3-ethyl-7-methyl-2-(1-(piperazin-1-yl)butyl)quinazolin-4(3H)-one], the figures for the Ki in assay [1] and in assay [2] were > 500 nM and < 500 nM, respectively.
On the same counts, the results for `CCCC(c1nc2cc(F)c(F)cc2c(=O)n1CC)N1CCNCC1` (stereo not shown) [Example 86, 3-ethyl-6,7-difluoro-2-(1-(piperazin-1-yl)butyl)quinazolin-4(3H)-one] are > 500 nM and < 500 nM.
As for `CCCC(c1nc2c(F)cc(Br)cc2c(=O)n1CC)N1CCNCC1` (stereo not shown) [Example 87, 6-bromo-3-ethyl-8-fluoro-2-(1-(piperazin-1-yl)butyl)quinazolin-4(3H)-one], the Ki in assay [1] was 100 to 500 nM; in assay [2] it was 500 to 5000 nM.
Consider `CCCC(c1nc2ccc(Br)c(F)c2c(=O)n1CC)N1CCNCC1` (stereo not shown) [Example 88, 6-bromo-3-ethyl-5-fluoro-2-(1-(piperazin-1-yl)butyl)quinazolin-4(3H)-one], for which the results for the Ki in assay [1] and in assay [2] were > 500 nM and < 500 nM, respectively.
`CCCC(c1nc2c(C)cc(Br)cc2c(=O)n1CC)N1CCNCC1` (stereo not shown) [Example 89, 6-bromo-3-ethyl-8-methyl-2-(1-(piperazin-1-yl)butyl)quinazolin-4(3H)-one]: the Ki in assay [1] was < 100 nM; in assay [2], > 5000 nM.
Regarding `CCCC(c1nc2c(Cl)cc(F)cc2c(=O)n1CC)N1CCNCC1` (stereo not shown) [Example 90, 8-chloro-3-ethyl-6-fluoro-2-(1-(piperazin-1-yl)butyl)quinazolin-4(3H)-one], the Ki is 100 to 500 nM in assay [1] and > 5000 nM in assay [2].
For the compound `CCCC(c1nc2ccc(Br)c(Cl)c2c(=O)n1CC)N1CCNCC1` (stereo not shown) [Example 91, 6-bromo-5-chloro-3-ethyl-2-(1-(piperazin-1-yl)butyl)quinazolin-4(3H)-one], the Ki in assay [1] is 100 to 500 nM; in assay [2], < 500 nM.
Consider `CCCC(c1nc2cccnc2c(=O)n1CC)N1CCNCC1` (stereo not shown) [Example 92, 3-ethyl-2-(1-(piperazin-1-yl)butyl)pyrido[3,2-d]pyrimidin-4(3H)-one], for which the Ki in assay [1] was > 500 nM; in assay [2] it was < 500 nM.
Take `CCCC(c1nc2ncc(Br)cc2c(=O)n1CC)N1CCNCC1` (stereo not shown) [Example 93, 6-bromo-3-ethyl-2-(1-(piperazin-1-yl)butyl)pyrido[2,3-d]pyrimidin-4(3H)-one]: the Ki in assay [1] is > 500 nM; in assay [2] it was < 500 nM.
For `CCCC(c1nc2ncccc2c(=O)n1CC)N1CCNCC1` (stereo not shown) [Example 94, 3-ethyl-2-(1-(piperazin-1-yl)butyl)pyrido[2,3-d]pyrimidin-4(3H)-one], the Ki in assay [1] is > 500 nM; in assay [2], < 500 nM.
Consider `CCC[C@@H](c1nc2c(F)cc(Br)cc2c(=O)n1CC)N1CCNCC1` [Example 95, (S)-6-bromo-3-ethyl-8-fluoro-2-(1-(piperazin-1-yl)butyl)quinazolin-4(3H)-one], for which the figures for the Ki in assay [1] and in assay [2] were > 500 nM and > 5000 nM, respectively.
Consider `CCC[C@H](c1nc2c(F)cc(Br)cc2c(=O)n1CC)N1CCNCC1` [Example 96, (R)-6-bromo-3-ethyl-8-fluoro-2-(1-(piperazin-1-yl)butyl)quinazolin-4(3H)-one], for which the Ki was 100 to 500 nM in assay [1] and < 500 nM in assay [2].
Turning to `CCC[C@H](c1nc2ccc(Br)cc2c(=O)n1CC)N1CCN[C@@H](C)C1` [Example 97, 6-Bromo-3-ethyl-2-((R)-1-((S)-3-methylpiperazin-1-yl)butyl)quinazolin-4(3H)-one], the Ki in assay [1] is 100 to 500 nM; in assay [2] it was < 500 nM.
On the same counts, the results for `CCC[C@H](c1nc2ccc(Br)cc2c(=O)n1CC)N1CCN[C@H](C)C1` [Example 98, 6-bromo-3-ethyl-2-((R)-1-((R)-3-methylpiperazin-1-yl)butyl)quinazolin-4(3H)-one] are > 500 nM and < 500 nM.
The matching figures for `CCC[C@@H](c1nc2ccc(Br)cc2c(=O)n1CC)N1CCN[C@@H](C)C1` [Example 99, 6-bromo-3-ethyl-2-((S)-1-((S)-3-methylpiperazin-1-yl)butyl)quinazolin-4(3H)-one]: > 500 nM and < 500 nM.
For `CCC[C@@H](c1nc2ccc(Br)cc2c(=O)n1CC)N1CCN[C@H](C)C1` [Example 100, 6-bromo-3-ethyl-2-((S)-1-((R)-3-methylpiperazin-1-yl)butyl)quinazolin-4(3H)-one], the Ki in assay [1] was > 500 nM; in assay [2] it was > 5000 nM.
With `CCC[C@H](c1nc2ccc(Cl)cc2c(=O)n1CC)N1CCN[C@H](C)C1` [Example 101, 6-Chloro-3-ethyl-2-((R)-1-((R)-3-methylpiperazin-1-yl)butyl)quinazolin-4(3H)-one], the Ki was > 500 nM in assay [1] and < 500 nM in assay [2].
Consider `CCC[C@@H](c1nc2ccc(Cl)cc2c(=O)n1CC)N1CCN[C@H](C)C1` [Example 102, 6-chloro-3-ethyl-2-((S)-1-((R)-3-methylpiperazin-1-yl)butyl)quinazolin-4(3H)-one], for which the Ki was > 500 nM in assay [1] and > 5000 nM in assay [2].

The values above are taken from US20220002314A1 (priority 2018, published 2022).
